PMC7265491, “Inhibition of LIPG phospholipase activity suppresses tumor formation of human basal-like triple-negative breast cancer” (Scientific Reports, 2020)

Target: T1, LIPG (endothelial lipase) (Homo sapiens, UniProt Q9Y5X9)
T1 construct: LIPG overexpressed in MDA-MB-468 cells
T1 sequence (Q9Y5X9 21-500): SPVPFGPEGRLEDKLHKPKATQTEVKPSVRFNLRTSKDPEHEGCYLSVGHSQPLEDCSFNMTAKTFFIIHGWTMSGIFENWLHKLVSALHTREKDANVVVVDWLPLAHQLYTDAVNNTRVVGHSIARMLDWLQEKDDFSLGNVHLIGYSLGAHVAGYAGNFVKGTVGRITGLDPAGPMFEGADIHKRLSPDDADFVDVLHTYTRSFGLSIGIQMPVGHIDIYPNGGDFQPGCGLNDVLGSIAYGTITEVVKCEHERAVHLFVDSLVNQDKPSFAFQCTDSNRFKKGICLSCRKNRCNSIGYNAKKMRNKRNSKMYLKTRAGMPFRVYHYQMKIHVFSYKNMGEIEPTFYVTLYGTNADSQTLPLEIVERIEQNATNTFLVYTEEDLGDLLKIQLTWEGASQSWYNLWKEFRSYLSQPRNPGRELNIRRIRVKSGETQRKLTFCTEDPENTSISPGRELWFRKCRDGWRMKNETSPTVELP
Experiment: cell-based fluorogenic phospholipase A1 assay (PED-A1 substrate) with LIPG-overexpressing MDA-MB-468 cells, parental-cell background subtracted

O=C(O)c1cc(C(F)(F)F)ccc1N1CC[C@H](OCc2ccccn2)C1 [XEN445]
IC50: 2170 nM
